According to patent publication US10463735B2, “Method and apparatus for adjusting corneal curvature through digital corneal crosslinking” (ZHEJIANG UNIVERSITY, priority 2016, dated 2019):

Test system: cornea
Test: Digital corneal crosslinking: photoinitiator solution dropped on the cornea, then selective local irradiation through a digital micromirror device
Type: in vivo
Description: A digital corneal crosslinking method to adjust the corneal curvature wherein a composition comprising a photoinitiator compound is administered to the corneal stromal of the subject, and the corneal is selectively and locally irradiated by utilizing digital micromirror device (DMD) controlled by a computer, whereby the corneal curvature is altered.
(§1) The epithelial tissue of an area of 7 mm diameter in the middle of the cornea was removed after superficial anesthesia. A dextran solution of 200 g/L with 1 g/L riboflavin was dropped to corneal surface in batches. The location of the riboflavin diffused into the corneal surface was observed by cobalt blue light of a slit lamp. Digital corneal crosslinking device was used to selectively irradiate the local area of the cornea. The light's wavelength is 365 nm, the irradiation area is shown in FIG. 2, the light power is 1.2 mW/cm^2, irradiation time is 5 minutes.
During irradiation process, a photoinitiator solution and superficial anesthesia were used to wash the corneal surface in phases. Antibiotic eye formulations were applied to the eye and corneal contact lens were used until the corneal epithelium was healed.
The epithelial tissue of an area of 7 mm diameter in the middle of the cornea was removed after superficial anesthesia. A dextran solution of 200 g/L with 1 g/L riboflavin sodium phosphate was dropped to corneal surface in batches. The location of the riboflavin diffused into the corneal surface was observed by cobalt blue light of a slit lamp. Digital corneal crosslinking device was used to selectively irradiate the local area of the cornea. The light's wavelength is 365 nm, the irradiation area is the same like that in example 1, the light power is 1.2 mW/cm^2, irradiation time is 5 minutes.
as §1, with “of 5-9” for “of 7”, “g/L eosin Y” for “g/L riboflavin”, “the eosin Y” for “the riboflavin”, “is 550” for “is 365”, “FIG. 3,” for “FIG. 2,”
During irradiation process, the eosin Y solution and superficial anesthesia were used to wash the corneal surface in phases. Antibiotic eye formulations were applied to the eye and corneal contact lens were used until the corneal epithelium was healed.
as §1, with “tissue” for “tissue of an area of 7 mm diameter in the middle”, “removed and a” for “removed after superficial anesthesia. A”, “FIG. 4,” for “FIG. 2,”
The epithelial tissue of the cornea was kept intact and a dextran solution of 200 g/L with 1.5 g/L EDTA sodium and 1.5 g/L riboflavin was dropped to corneal surface in batches. The location of the riboflavin diffused into the corneal surface was observed by cobalt blue light of a slit lamp. Digital corneal crosslinking device was used to selectively irradiate the local area of the cornea.

`O=C([O-])c1ccccc1-c1c2cc(Br)c(=O)c(Br)c-2oc2c(Br)c([O-])c(Br)cc12.[Na+].[Na+]` [eosin Y] was tested, and the corneal surface curvature (Example 3: epithelium removed (5-9 mm), dextran solution 200 g/L with 1 g/L eosin Y, 550 nm, irradiation area of FIG. 3, 1.2 mW/cm^2, 5 minutes) was “decreased”.

In the case of `Cc1cc2nc3c(=O)[nH]c(=O)nc-3n(C[C@H](O)[C@H](O)[C@H](O)COP(=O)(O)O)c2cc1C` [riboflavin sodium phosphate], the corneal surface curvature (Example 2: epithelium removed (7 mm), dextran solution 200 g/L with 1 g/L riboflavin sodium phosphate, 365 nm, irradiation area as example 1, 1.2 mW/cm^2, 5 minutes) is reported as “the same as example 1”.

`Cc1cc2nc3c(=O)[nH]c(=O)nc-3n(C[C@H](O)[C@H](O)[C@H](O)CO)c2cc1C` [riboflavin] was tested, and the corneal surface curvature (Example 1: epithelium removed (7 mm), dextran solution 200 g/L with 1 g/L riboflavin, 365 nm, irradiation area of FIG. 2, 1.2 mW/cm^2, 5 minutes) was “increased”, the corneal curvature (Example 4: epithelium removed, dextran solution 200 g/L with 1 g/L riboflavin, 365 nm, irradiation area of FIG. 4, 1.2 mW/cm^2, 5 minutes) was “locally changed” and the “result (corneal surface curvature)” value (Example 5: epithelium kept intact, dextran solution 200 g/L with 1.5 g/L EDTA sodium and 1.5 g/L riboflavin, 365 nm, irradiation area as example 1, 1.2 mW/cm^2, 10 minutes) was “the same as example 1”.
